Reference: PMC8601123, “Drug delivery, biodistribution and anti-EGFR activity: theragnostic nanoparticles for simultaneous in vivo delivery of tyrosine kinase inhibitors and kinase activity biosensors” (Nanoscale, 2021)
One block for each compound: values may come before it.

Assays:
[1] = cited from earlier work
Text: This approach also allowed us to further investigate the basis for the enhanced circulation and better tumour selectivity afforded by nanoparticle delivery of small molecule therapeutics. […] This phenomenon will need further investigation of potential differences in trafficking of the drug within the cell post-uptake, both in terms of the subcellular compartments involved and kinetics of intracellu ...

EGFR [2] = assay: EGFR activation by EGF in SW48 cells, western blot; assay type: cell-based; conditions: serum-free 24 h, 1 h pre-treatment, EGF 100 ng/mL 5 min, western blot (Fig. S1)
Protocol: To test the ability of lipopolyplexes to deliver pDNA and inhibitor we used LIM1215 colon cancer cells. […] As a control, to check the response of the colorectal cancer cell lines to this class of TKI, we prepared an analogue of 1, with the disulfide-linked peptide replaced with an –OMe group. TKI analogue MeO-[PEG6-IPQA]
Optimization of EGFR inhibitor delivery to target cells
Figure S1. Effect of MeO-[PEG6-IPQA] (8) on EGFR activation by EGF in SW48 cells.
Cells were seeded in 6-well plate, 48 h later media was changed for media without serum. 24 h later cells were pre-treated with MeO-[PEG6-IPQA] (8) at indicated concentrations for 1 h followed by treatment with EGF (100 ng/mL) for 5 min. Cells were lysed and subjected to western blot analysis for activation/phosphorylation of EGFR and downstream signalling […]
(1 picture or pasted object on this page, not shown here)

EGFR [3] = biological target: T1, EGFR (Homo sapiens, UniProt P00533); assay: Western blot of EGFR phosphorylation, time course of inhibitory effect; assay type: cell-based; conditions: for duration of EGFR inhibition: western blot (Fig. 2d)
T1 construct: endogenous in cells; host or cells: LIM1215 colon cancer cells
Text: (§1) We then prepared variant lipopolyplex formulations, based on CLA1 and including the EGFR inhibitor K16Cys-S-S-[PEG6-IPQA] 1 (Table 1). […] For efficient perfusion through the leaky endothelial cells of the tumor, lipopolyplexes must be <150 nm in diameter. […] We also carried out in vitro studies to check that the disulfide linker between K16Cys and PEG-IPQA was labile under pseudo-intracellular conditions (GSH/GSSG, HEPES, pH 7.2).[66] […] Next, we assessed the effectiveness of K16Cys-S-S-[PEG6-IPQA] 1 as an inhibitor of EGFR activity as a free therapeutic or within lipopolyplexes by utilizing FRET-FLIM and validating our results by western blot (WB) techniques. Activation of EGFR in cells treated with EGF (natural ligand for EGFR) was evident by decreasing lifetime of green fluorescent protein (GFP) in Picchu-X biosensor (Fig. 2c) and by appearance of phosphorylated EGFR band in WB image (Fig. 2d). In both cases pre-treatment with MeO-[PEG6-IPQA]
Fig. 2 Effect of different lipopolyplex formulations and drug loading on the expression of EGFR in targeted cells and inhibition of its activity upon stimulation with EGF. LIM1215 cells transfected with different lipopolyplexes without inhibitor (CLA1–4, NAE1–4, NGE1–4) (a) or with increasing amount of inhibitor per particle (F1LA1–3, F2LA1–3) (b) 24 h after seeding.
LIM1215, DiFi, SW48 and DLD1 colon cancer cell lines (independently validated by STR DNA fingerprinting at The Institute of Cancer Research (London, UK), were maintained in RPMI-1640 (Life Technologies Ltd). Antibodies: anti-EGFR (clone D38B1) anti-p-Y1173-EGFR (clone 53A5) were from Cell Signaling Technology Ltd.

EGFR [4] = biological target: T1, EGFR; assay: FRET-FLIM analysis of EGF-induced EGFR activity with Picchu-X biosensor in cells; assay type: cell-based; set-up: inhibition of EGF-induced EGFR activity (FRET-FLIM), difference between the groups: dose or concentration left out as unconfirmed
Text: as §1, with “Activation of EGFR in cells treated with EGF (natural ligand for EGFR) was evident by decreasing lifetime of green fluorescent protein (GFP) in Picchu-X biosensor (Fig. 2c) and by appearance of phosphorylated EGFR band in WB image (Fig. 2d). In both cases pre-treatment with MeO-[PEG6-IPQA]” left out
A10 μM solution of the non-radiolabelled F1LA1 K16Cys-S-S-[PEG6-IPQA] lipopolyplex was applied to cells at 60% confluence in 96-well-plates. […] Time-domain fluorescence lifetime images were acquired via time correlated single photon counting (TCSPC) at a resolution of 256 by 256 pixels, with 256 time bins and 100 frames accumulated over 300 seconds, via excitation and emission filters suitable for the detection of GFP fluorescence (Excitation filter: Semrock FF01-470/22 nm; Beam Splitter: Edmund 48NT-392 30R/70 T; Emission filter: Semrock FF01-510/20 nm). […]

LIM1215 xenografts = assay: In vivo radioactive organ biodistribution in LIM1215 xenograft mice; set-up: species or system CD1 nu/nu mice
Protocol: Fig. 3 In vivo radioactive organ biodistribution data presented in % Injected Dose per gram (%ID g^−1) for MeO-[PEG6-[^125I]-IPQA] 8 (black columns) and F1LA1 K16Cys-SMal-[PEG3-[^125I]-IPQA] 9 lipopolyplex (grey columns) 3, 6 and 24 h after injection. The tumor %ID g^−1 at 3, 6 and 24 h for both tracers is represented on a separate graph.
All animal studies were approved by the University College London Biological Services Ethical Review Committee and licensed under the UK Home Office regulations and the Guidance for the Operation of Animals (Scientific Procedures) Act 1986 (Home Office, London, United Kingdom). 12 female 6–8 weeks old CD1 nu/nu mice (Charles River Laboratories, UK) were injected subcutaneously in the right flank with 2 × 10^6 LIM1215 cells in 100 μL PBS. Once palpable tumors were measure in three orthogonal directions using the following equation: length × height × width × π/6. Once tumors had reached approximately 70–100 mm^3 mice were randomly divided into 2 groups; group 1 received an intravenous injection of 0.5Mbq MeO-[PEG6-[^125I]-IPQA] 8 (n = 6), group 2 received an intravenous injection of 0.5MBq F1LA1 K16Cys-SMal-[PEG3-[^125I]-IPQA]-lipopolyplex (n = 6). Mice were then culled at 3, 6 and 24 hours (n = 2 per time point) and all organs were taken, weighed and ^125I uptake quantified using a gamma counter (Wizard, PerkinElmer) to obtain % Injected dose per gram (%ID g^−1).

[5] = Cleavage of the disulfide linker under pseudo-intracellular conditions; assay type: physicochemical; conditions: reducing pseudo-intracellular conditions, GSH/GSSG, HEPES, pH 7.2 (Fig. S7)
Text: as §1

Compound: C=CC(=O)Nc1cc2c(Nc3cccc(I)c3)ncnc2cc1OCCOCCOCCOCCOCCOCCF [[^18F]F-PEG6-IPQA]
selectivity for tumour cells [1]: little selectivity for tumour cells | in vivo clearance ([1]; compared with Mo-IPQA): quicker in vivo clearance

duration of EGFR inhibition (EGFR [3]; free agent): 24 h | lifetime of GFP in Picchu-X biosensor after EGF (EGFR [4]; pre-treatment for 1 h, then EGF (Fig. 2c)): remained at baseline levels | time of highest tumor uptake (LIM1215 xenografts; i.v. 0.5 MBq, time points 3, 6 and 24 h, gradual reduction over 24 h): 3 h
Compound: C=CC(=O)Nc1cc2c(Nc3cccc(I)c3)ncnc2cc1OCCOCCOCCOCCOCCOCCOC [Compound 8, MeO-[PEG6-IPQA]]
inhibition of EGFR activation by EGF (EGFR [2]): potent inhibitor of EGFR activation | level of EGFR phosphorylation (EGFR [3]; pre-treatment for 1 h, EGF stimulation, western blot (Fig. 2d, line 8 vs. line 2)): significantly lower than in the sample without inhibitor | organ uptake (LIM1215 xenografts; i.v. 0.5 MBq, 3, 6 and 24 h, 125I gamma counting, %ID g-1 (Fig. 3)): high uptake in gallbladder and intestines at 3 and 6 h | clearance route (LIM1215 xenografts; i.v. 0.5 MBq, 125I gamma counting, n = 2 per time point): rapidly cleared via the hepatobiliary route

duration of EGFR inhibition (EGFR [3]; delivered within lipopolyplexes): up to 48 h | EGFR activity, inhibitor within lipopolyplexes (EGFR [3]; delivered within lipopolyplexes, western blot (Fig. 2d, lines 3-7 vs. line 2)): equally low levels as the free drug | inhibition of EGF-induced EGFR activity (FRET-FLIM), difference between the groups (EGFR [4]; free agent, P = 0.03 (Fig. 2c legend)): statistically significant
Compound: K16Cys-S-S-[PEG6-IPQA] [Compound 1]
time to cleavage of disulfide linkage [5]: ≤ 5 min
